Test results published in patent US10358434B2, “2-(3-pyridinyl)-1H-benzimidazole derivative compound and medicament containing same” (NIHON MEDI-PHYSICS CO., LTD., priority 2014, dated 2019).

What was measured:
[1] = system: human adrenal gland section expressing aldosterone-producing adenoma; assay: In vitro autoradiography using human adrenal adenoma; type: binding; conditions: section of FIG. 17(b)
From the text: From adrenal gland excised from a human patient for treatment of primary aldosteronism, a portion containing aldosterone-producing adenoma was removed and was then frozen. The frozen adrenal gland was embedded in an embedding agent for production of a frozen tissue section (Tissue-Tek O.C.T. Compound, Sakura Finetek Japan). Using a freezing microtome (CM3050S, Leica Microsystems), a 7-μm thin slice section, which is schematically shown in FIGS. 17(a) and 17(b), was produced, and was preserved at −20° C. before use. In FIGS. 17, 71a and 71b indicate aldosterone-producing adenomas, 72a and 72b indicate normal adrenal cortexes, and 73a and 73b indicate normal adrenal medullas. A 5-33 kBq/mL solution was prepared by adding a suitable amount of each of Compounds [^18F] 100, [^18F] 200, [^123I] 400, [^18F] 500, and [^123I] 601 to [^123I] 610, which were obtained by the methods described in Examples 2, 4, 7, 9, 11, 13, 15, 17, 19, 21, 23, 25, 27, and 29, or [^123I] IMTO to a phosphate-buffered physiological saline containing 1 w/v % bovine serum albumin (not containing fatty acid). The radioactivity concentration was measured using an autowell gamma system (ARC-7001, manufactured by Hitachi Aloka Medical, Ltd.). The section was immersed in the obtained sample solution for 10 minutes. For Compounds [^18F] 100, [^18F] 200, [^123I] 400, [^18F] 500, [^123I] 601 and [^123I] 602, the section shown in FIG. 17(a) was used, and for Compounds […] [^123I] IMTO, both sections shown in FIGS. 17(a) and (b) were used. Each sample solution was washed off, and the section was then exposed to an imaging plate (BAS-SR2040, manufactured by FUJIFILM Holdings Corporation) (IP) for 16-20 hours, and thereafter, an autoradiogram was obtained using a fluoro-image analyzer (FLA-7000, manufactured by FUJIFILM Holdings Corporation).
In order to quantitatively compare differences between images caused by ^123I and ^18F nuclides, a correction was made by calculating accumulation of radioactivity within the range of a region of interest (ROI) by means of integral calculation based on half-life, added radioactivity and IP contact time.
610. FIG. 18(b), FIG. 19(b), FIG. 20(b), FIG. 21(b), FIG. 22(a), FIG. 23(a), FIG. 24(a), FIG. 25(a), FIG. 26(a), FIG. 27(a), FIG. 28(a), FIG. 29(a), FIG. 30(a), and FIG. 31(a) each show an autoradiogram of [^123I] IMTO. […] 100, [^18F] 200, [^123I] 400, [^18F] 500, and [^123I] 601 to [^123I] […] The ROI having the same area as each other was established in a normal site and in a site in which aldosterone-producing adenoma had developed. Then, the PSL value (B1) indicating accumulation of radioactivity in the sites of normal adrenal cortexes 72a and 72b was compared with the PSL value (B2) indicating accumulation of radioactivity in the sites of aldosterone-producing adenomas 71a and 71b. In Table 7, the B1, B2 and B2/B1 values of [^18F] 100 indicate the mean values for the number of tests (n), respectively.

[2] = Plasma stability evaluation (TLC analysis); type: in vitro ADME; conditions: 37° C., 60 minutes, TLC analysis
Method: Evaluation was made using a heparin-treated normal human plasma pool (Kohjin Bio Co., Ltd.). Compounds [^18F] 100, [^18F] 200, [^123I] 400, [^18F] 500, and [^123I] 601 to 610 obtained by the methods shown in Examples 2, 4, 7, 9, 11, 13, 15, 17, 19, 21, 23, 25, 27, and 29 were each added to the aforementioned human plasma (5 mL), and the obtained mixture was then incubated at 37° C. for 60 minutes. Thereafter, the mixture was centrifuged with addition of methanol, so that a deproteinization treatment was carried out. Thereafter, stability was evaluated by TLC analysis. As TLC analysis conditions, the TLC analysis conditions applied upon the above described synthesis of each compound were applied.

[3] = In vivo kinetics experiment (radioactivity distribution); design: species or system Wistar male rat; conditions: rat i.v., mean ± SD
Method: Each of Compounds [^18F] 100, [^18F] 200, [^123I] 400, [^18F] 500, and [^123I] 601 to 610 obtained by the methods described in Examples 2, 4, 7, 9, 11, 13, 15, 17, 19, 21, 23, 25, 27, and 29, or [^123I] IMTO, was diluted with a physiological saline containing 1 w/v % ascorbic acid to prepare a solution to be administered. The above described compound (approximately 1 to 3.7 MBq) was injected into the caudal vein of a Wistar male rat (9 weeks old) under anesthesia with a mixed gas of isoflurane/air, and ten minutes after the injection, the rat was sacrificed by exsanguination. From the thus sacrificed rat, blood and organs (heart, lung, stomach, liver, spleen, small intestine, large intestine, kidney, bladder (including urine), muscle (lower limbs), brain, adrenal gland, testis, fat, femur, or thyroid gland) were excised, and the weights thereof were then measured. Thereafter, radioactivity was measured in the blood, the individual excised organs, and the remaining whole body. Further, 30 and 60 minutes after the administration, the same operations as those described above were carried out. […] The symbol “n” in Tables 9 to 23 indicates the number of rats used. In addition, Tables 9 to 23 also show the ratio of radioactivity accumulation in adrenal grand (% ID/g) to radioactivity accumulation in each of blood, liver, kidney, small intestine, muscle and fat (% ID/g).

Radiochemical purity after incubation in human plasma [2]: 92%
Adrenal gland/blood ratio of radioactivity accumulation ([3]; 10 min after administration): 27.61 ± 6.22
Adrenal gland/fat ratio of radioactivity accumulation ([3]; 10 min after administration): 100.35 ± 29.67
Adrenal gland/kidney ratio of radioactivity accumulation ([3]; 10 min after administration): 14.48 ± 2.49
Adrenal gland/liver ratio of radioactivity accumulation ([3]; 10 min after administration): 3.68 ± 0.80
Adrenal gland/muscle ratio of radioactivity accumulation ([3]; 10 min after administration): 62.69 ± 29.38
Adrenal gland/small intestine ratio of radioactivity accumulation ([3]; 10 min after administration): 18.10 ± 4.67
Radioactivity distribution Adrenal gland ([3]; 10 min after administration): 12.62 ± 2.99 % ID/g
Radioactivity distribution Bladder (including urine) ([3]; 10 min after administration): 0.22 ± 0.08 % ID/g
Radioactivity distribution Blood ([3]; 10 min after administration): 0.46 ± 0.03 % ID/g
Radioactivity distribution Fat ([3]; 10 min after administration): 0.13 ± 0.02 % ID/g
Radioactivity distribution Femur ([3]; 10 min after administration): 3.25 ± 0.85 % ID/g
Radioactivity distribution Heart ([3]; 10 min after administration): 0.33 ± 0.02 % ID/g
Radioactivity distribution Kidney ([3]; 10 min after administration): 0.86 ± 0.06 % ID/g
Radioactivity distribution Large intestine ([3]; 10 min after administration): 0.13 ± 0.02 % ID/g
Radioactivity distribution Liver ([3]; 10 min after administration): 3.43 ± 0.26 % ID/g
Radioactivity distribution Lung ([3]; 10 min after administration): 0.49 ± 0.03 % ID/g
Radioactivity distribution Muscle (lower limbs) ([3]; 10 min after administration): 0.21 ± 0.05 % ID/g
Radioactivity distribution Remaining whole body ([3]; 10 min after administration): 0.30 ± 0.04 % ID/g
Radioactivity distribution Small intestine ([3]; 10 min after administration): 0.71 ± 0.10 % ID/g
Radioactivity distribution Spleen ([3]; 10 min after administration): 1.43 ± 0.11 % ID/g
Radioactivity distribution Stomach ([3]; 10 min after administration): 0.66 ± 0.21 % ID/g
Radioactivity distribution Testis ([3]; 10 min after administration): 0.13 ± 0.02 % ID/g
Radioactivity distribution Whole brain ([3]; 10 min after administration): 0.04 ± 0.00 % ID/g
Adrenal gland/blood ratio of radioactivity accumulation ([3]; 30 min after administration): 23.78 ± 2.07
Adrenal gland/fat ratio of radioactivity accumulation ([3]; 30 min after administration): 88.69 ± 3.10
Adrenal gland/kidney ratio of radioactivity accumulation ([3]; 30 min after administration): 28.65 ± 3.77
Adrenal gland/liver ratio of radioactivity accumulation ([3]; 30 min after administration): 6.43 ± 0.94
Adrenal gland/muscle ratio of radioactivity accumulation ([3]; 30 min after administration): 94.79 ± 8.71
Adrenal gland/small intestine ratio of radioactivity accumulation ([3]; 30 min after administration): 16.12 ± 2.61
Radioactivity distribution Adrenal gland ([3]; 30 min after administration): 15.71 ± 1.59 % ID/g
Radioactivity distribution Bladder (including urine) ([3]; 30 min after administration): 0.28 ± 0.08 % ID/g
Radioactivity distribution Blood ([3]; 30 min after administration): 0.66 ± 0.04 % ID/g
Radioactivity distribution Fat ([3]; 30 min after administration): 0.18 ± 0.01 % ID/g
Radioactivity distribution Femur ([3]; 30 min after administration): 19.34 ± 6.00 % ID/g
Radioactivity distribution Heart ([3]; 30 min after administration): 0.31 ± 0.02 % ID/g
Radioactivity distribution Kidney ([3]; 30 min after administration): 0.55 ± 0.02 % ID/g
Radioactivity distribution Large intestine ([3]; 30 min after administration): 0.16 ± 0.03 % ID/g
Radioactivity distribution Liver ([3]; 30 min after administration): 2.46 ± 0.18 % ID/g
Radioactivity distribution Lung ([3]; 30 min after administration): 0.53 ± 0.02 % ID/g
Radioactivity distribution Muscle (lower limbs) ([3]; 30 min after administration): 0.17 ± 0.02 % ID/g
Radioactivity distribution Remaining whole body ([3]; 30 min after administration): 0.31 ± 0.02 % ID/g
Radioactivity distribution Small intestine ([3]; 30 min after administration): 0.98 ± 0.06 % ID/g
Radioactivity distribution Spleen ([3]; 30 min after administration): 1.00 ± 0.04 % ID/g
Radioactivity distribution Stomach ([3]; 30 min after administration): 1.27 ± 0.33 % ID/g
Radioactivity distribution Testis ([3]; 30 min after administration): 0.25 ± 0.02 % ID/g
Radioactivity distribution Whole brain ([3]; 30 min after administration): 0.04 ± 0.00 % ID/g
Adrenal gland/blood ratio of radioactivity accumulation ([3]; 60 min after administration): 27.80 ± 8.18
Adrenal gland/fat ratio of radioactivity accumulation ([3]; 60 min after administration): 120.42 ± 43.06
Adrenal gland/kidney ratio of radioactivity accumulation ([3]; 60 min after administration): 40.68 ± 13.23
Adrenal gland/liver ratio of radioactivity accumulation ([3]; 60 min after administration): 20.57 ± 8.91
Adrenal gland/muscle ratio of radioactivity accumulation ([3]; 60 min after administration): 147.93 ± 55.03
Adrenal gland/small intestine ratio of radioactivity accumulation ([3]; 60 min after administration): 15.84 ± 3.51
Radioactivity distribution Adrenal gland ([3]; 60 min after administration): 19.09 ± 6.65 % ID/g
Radioactivity distribution Bladder (including urine) ([3]; 60 min after administration): 0.29 ± 0.08 % ID/g
Radioactivity distribution Blood ([3]; 60 min after administration): 0.68 ± 0.05 % ID/g
Radioactivity distribution Fat ([3]; 60 min after administration): 0.16 ± 0.03 % ID/g
Radioactivity distribution Femur ([3]; 60 min after administration): 44.38 ± 12.58 % ID/g
Radioactivity distribution Heart ([3]; 60 min after administration): 0.28 ± 0.04 % ID/g
Radioactivity distribution Kidney ([3]; 60 min after administration): 0.47 ± 0.02 % ID/g
Radioactivity distribution Large intestine ([3]; 60 min after administration): 0.19 ± 0.02 % ID/g
Radioactivity distribution Liver ([3]; 60 min after administration): 0.95 ± 0.10 % ID/g
Radioactivity distribution Lung ([3]; 60 min after administration): 0.50 ± 0.03 % ID/g
Radioactivity distribution Muscle (lower limbs) ([3]; 60 min after administration): 0.13 ± 0.01 % ID/g
Radioactivity distribution Remaining whole body ([3]; 60 min after administration): 0.31 ± 0.02 % ID/g
Radioactivity distribution Small intestine ([3]; 60 min after administration): 1.18 ± 0.18 % ID/g
Radioactivity distribution Spleen ([3]; 60 min after administration): 0.78 ± 0.25 % ID/g
Radioactivity distribution Stomach ([3]; 60 min after administration): 2.97 ± 0.54 % ID/g
Radioactivity distribution Testis ([3]; 60 min after administration): 0.32 ± 0.05 % ID/g
Radioactivity distribution Whole brain ([3]; 60 min after administration): 0.03 ± 0.00 % ID/g
SMILES: FCCn1c(-c2cncc(Cn3cncc3[123I])c2)nc2cc(F)c(Cl)cc21 [[^123I] 610, 6-Chloro-5-fluoro-1-(2-fluoroethyl)-2-{5-(5-[^123I]iodo-1H-imidazol-1-ylmethyl)pyridin-3-yl}benzimidazole]
B2/B1 accumulation ratio [1]: 0.95
B2 (PSL value, aldosterone-producing adenoma) ([1]; site 71b): 2786
B1 (PSL value, normal adrenal cortex) ([1]; site 72b): 2931
